Laboratory results reported in patent US9127035B2, “Compounds for use in the treatment of bacterial infection” (THE ROYAL INSTITUTION FOR THE ADVANCEMENT OF …, priority 2011, dated 2015).
Where two headings read alike, the source gives them in different places.

How the values were obtained:
[1] = target: T1, E. coli pantothenate kinase (PanK or coaA enzyme) (Escherichia coli, UniProt P0A6I3); experiment: PanK enzyme assay (Michaelis-Menten kinetics); type: biochemical; conditions: transformation by PanK; 25° C., Tris-HCl pH 7.6; triplicate
T1 construct: made in house
T1 sequence (P0A6I3 1-316): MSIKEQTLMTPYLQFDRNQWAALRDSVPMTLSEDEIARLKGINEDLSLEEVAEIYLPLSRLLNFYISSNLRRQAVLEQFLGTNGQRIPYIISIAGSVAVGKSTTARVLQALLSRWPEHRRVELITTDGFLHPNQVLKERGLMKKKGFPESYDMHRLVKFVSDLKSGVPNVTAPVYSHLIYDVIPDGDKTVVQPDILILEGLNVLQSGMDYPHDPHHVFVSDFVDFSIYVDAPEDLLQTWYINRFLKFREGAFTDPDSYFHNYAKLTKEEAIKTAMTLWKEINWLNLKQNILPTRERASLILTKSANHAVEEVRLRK
Procedure: PanK enzyme assay. The E. coli pantothenate kinase (PanK or coaA enzyme) was expressed and purified as previously described. Enzyme activity was measured as described in the literature [Strauss E, Begley T P J Biol Chem, 2002, 277:48205-48209]. This assay couples the production of ADP to the consumption of NADH through the activity of pyruvate kinase and lactic dehydrogenase. The decrease of NADH concentration was monitored at 340 nm. Reactions were performed at 25° C. in an Agilent 8453 UV-Vis spectrophotometer coupled to an Agilent 89090A Peltier temperature controller. Kinetic parameters were determined by fitting the rate data into the Michaelis-Menten equation using Prism 4.0 (GraphPad). Each reaction mixture (500 μL) contained ATP (1.5 mM), NADH (0.3 mM), phosphoenolpyruvate (0.5 mM), MgCl2 (10 mM), KCl (20 mM), pyruvate kinase (5 units), lactic dehydrogenase (5 units), and PanK (5 μg, 278 nM) in Tris-HCl buffer (50 mM, pH 7.6). The reaction was initiated by addition of the desired substrate (10-160 μM). All data points are from triplicate experiments.

[2] = system: PanK, PPAT and DPCK; experiment: Biosynthetic in vitro assay with a mixture of PanK, PPAT and DPCK enzymes; type: biochemical; conditions: substrate 5.0 mM, 3 hours at room temperature; HPLC, approximate ± 5%, duplicate
Procedure: Biosynthetic in vitro assay with a mixture of PanK, PPAT and DPCK enzymes. The E. coli enzymes pantothenate kinase (PanK or coaA enzyme), phosphopantetheine adenylyltransferase (PPAT or coaD enzyme), and dephosphocoenzyme A kinase (DPCK or coaE enzyme) were expressed and purified as previously described [Geerlof A, Lewendon A, Shaw W V J Biol Chem 1999, 274:27105-27111]. Each reaction mixture (500 μL) contained ATP (5.0 mM), KCl (20 mM), MgCl2 (10 mM), DTT (2.0 mM), PanK (5 μg, 278 nM), PPAT (5 μg, 500 nM), DPCK (5 μg, 454 nM) in Tris-Cl Buffer (50 mM, pH 7.6). The reaction was initiated with the addition of pantetheine (5.0 mM) for comparison, water as a negative control, or compounds 3a-e (5.0 mM). Reactions were incubated for 3 hours at room temperature and then stopped by heating the mixture to 95° C. for 5 min. The precipitated protein was removed by centrifugation (13,000 rpm for 5 min) and the supernatant was analyzed by LC/MS. Reversed-phase analytical HPLC was performed with an analytical 4.60×250 mm, SYNERGI 4p Hydro-RP 80A (Phenomenex, Torrance, Calif.) column coupled to an Agilent 6120 Quadrupole LC/MS system for ESI-MS analysis. The HPLC conditions had the sample eluted at a flow rate of 0.5 mL min^−1 using a combination of mobile phase A (H2O) and mobile phase B (acetonitrile), Elution conditions are as follows: isocratic 1% phase B from 0-3 min; followed by the following linear gradients of phase B: 1-10% from 3-5 min; 10-15% from 5-10 min; 15-30% from 10-13 min; an finally isocratic phase B at 30% from 13-26 min. The detector was set to 214 nm. These experiments were run in duplicate.

[3] = system: Enterococcus faecium ATCC 19434 which expresses AAC(6′)-li naturally; experiment: Checkerboard assay, potentiation of kanamycin A on a resistant strain; type: cell-based; conditions: for effect on the MIC50 of kanamycin A: compound 512 μg/ml combined with kanamycin A, compared to kanamycin A alone
Procedure: General biological methods. Enterococcus faecium ATCC 19434, Staphylococcus aureus ATCC 29213 and 43300, Acinetobacter baumannii ATCC 19606, Pseudomonas aeruginosa ATCC 27853, Klebsiella penumoniae ATCC 13883, and Escherichia coli ATCC 25922 and 11775 were all purchased from Cedarlane (Burlington, ON). E. faecium was grown in Difco brain heart infusion media (BD, Mississauga, ON), S. aureus and P. aeruginosa were grown in Trypticase soy media (BD, Mississauga, ON), and E. coli, A. baumannii, and K. pneumoniae were grown in Nutrient media (BD, Mississauga, ON). Antibacterial tests were performed using Falcon™ Black with Clear Bottom 96-well Microtest™ Optilux plates (BD, Mississauga, ON).
(§1) Checkerboard assay to determine the synergistic activity of compounds 3a-f with kanamycin A or tobramycin on a resistant strain. A two dimensional checkerboard MIC assay was carried out as previously described [Gao F, Yan X, Shakya T, Baettig O M, Ait-Mohand-Brunet S, Berghuis A M, Wright G D, Auclair K; J Med Chem, 2006, 49:5273-5281] to observe for the potentiation activity of compounds 3a-f towards the antibacterial activity of kanamycin A or tobramycin against Enterococcus faecium ATCC 19434 which expresses AAC(6′)-li naturally, or an E. coli strain engineered to express AAC(6)-li. Compounds 3a-f were diluted by 2-fold sequential dilutions to create a gradient from 32 to 512 μg/mL while the concentrations used for kanamycin A or tobramycin were 0, 10, 20, 40, 50, 100, 150, 200, 250, and 300 μg/mL. The cultures were grown at 37° C. for 16 h in 96-well plates, and then monitored for optical density at 600 nm using a Spectramax 190 microplate reader (Molecular Devices, Sunnyvale, Calif.). Data was normalized against a positive growth control and reported as a percentage of bacterial cell growth. All data points are from quadruplicate experiments.

[4] = system: E. coli (BL21) harbouring AAC(6′)-li resistance gene in pET-22b(+) vector; experiment: Checkerboard assay, potentiation of tobramycin on engineered E. coli; type: cell-based; conditions: tobramycin combined with compound; E. coli engineered to express AAC(6′)-li
Procedure: as §1

[5] = target: T1, E. coli pantothenate kinase (PanK or coaA enzyme); conditions: natural substrates of PanK; literature values (footnotes a, b); cited from earlier work

| Compound | Compounds detected by LC-MS: 6a-e, relative percentage [2] | Compounds detected by LC-MS: 7a-e, relative percentage [2] | effect on the MIC50 of kanamycin A [3] | Compounds detected by LC-MS: 2a-e, relative percentage [2] | further results |
| --- | --- | --- | --- | --- | --- |
| CC(C)(CO)[C@@H](O)C(=O)NCCC(=O)NCCSCC(=O)NC[C@H]1O[C@H](O[C@H]2[C@H](O)[C@@H](O)[C@H](N)C[C@@H]2N)[C@H](N)[C@@H](O)[C@@H]1O [Compound 3a, Neamine 6′-N—(R)-(3-((2-((2-amino-2-oxoethyl)thio)ethyl)amino)-3-oxopropyl)-2,4-dihydroxyl-3,3-dimethylbutanamide] | 5% | 25% | negligible effect |  | Km [1]: ≥ 500 µM; Compounds detected by LC-MS: 3a-e (starting material), relative percentage [2]: 70% |
| CC(C)(CO)[C@@H](O)C(=O)NCCC(=O)NCCSCCC(=O)NC[C@H]1O[C@H](O[C@H]2[C@H](O)[C@@H](O)[C@H](N)C[C@@H]2N)[C@H](N)[C@@H](O)[C@@H]1O [Compound 3b, Neamine 6′-N—(R)-(3-((2-((2-amino-2-oxopropyl)thio)ethyl)amino)-3-oxopropyl)-2,4-dihydroxyl-3,3-dimethylbutanamide] | 20% | 70% |  | 10% |  |
| CC(C)(CO)[C@@H](O)C(=O)NCCC(=O)NCCSCCCC(=O)NC[C@H]1O[C@H](O[C@H]2[C@H](O)[C@@H](O)[C@H](N)C[C@@H]2N)[C@H](N)[C@@H](O)[C@@H]1O [Compound 3c, Neamine 6′-N—(R)-(3-((2-((2-amino-2-oxobutyl)thio)ethyl)amino)-3-oxopropyl)-2,4-dihydroxyl-3,3-dimethylbutanamide] | 5% | 40% |  | 55% | dose dependence of the potentiation of kanamycin A ([3]; compound 32 to 512 μg/mL with kanamycin A): dose-dependent effect |
| CC(C)(CO)[C@@H](O)C(=O)NCCC(=O)NCCSCCCCC(=O)NC[C@H]1O[C@H](O[C@H]2[C@H](O)[C@@H](O)[C@H](N)C[C@@H]2N)[C@H](N)[C@@H](O)[C@@H]1O [Compound 3d, Neamine 6′-N—(R)-(3-((2-((2-amino-2-oxopentyl)thio)ethyl)amino)-3-oxopropyl)-2,4-dihydroxyl-3,3-dimethylbutanamide] |  | 10% | drop by half | 90% | reduction in the MIC of tobramycin [4]: 10 fold |
| CC(C)(CO)[C@@H](O)C(=O)NCCC(=O)NCCSCCCCCC(=O)NC[C@H]1O[C@H](O[C@H]2[C@H](O)[C@@H](O)[C@H](N)C[C@@H]2N)[C@H](N)[C@@H](O)[C@@H]1O [Compound 3e, Neamine 6′-N—(R)-(3-((2-((2-amino-2-oxohexyl)thio)ethyl)amino)-3-oxopropyl)-2,4-dihydroxyl-3,3-dimethylbutanamide] |  | 20% | drop by half | 80% |  |
| CC(C)(CO)[C@@H](O)C(=O)NCCC(=O)NCCS [Pantetheine] |  |  |  |  | kcat [5]: 0.32 ± 0.02^b sec^−1 |
| CC(C)(CO)[C@@H](O)C(=O)NCCC(=O)O [Pantothenic acid] |  |  |  |  | Km [5]: 17 ± 2 µM; kcat [5]: 1.07 ± 0.04^a sec^−1 |
| NC[C@H]1O[C@H](O[C@H]2[C@H](O)[C@@H](O[C@H]3O[C@H](CO)[C@@H](O)[C@H](N)[C@H]3O)[C@H](N)C[C@@H]2N)[C@H](O)[C@@H](O)[C@@H]1O [kanamycin A, reference compound] |  |  |  |  | MIC50 of kanamycin A (minimum concentration causing a 50% growth inhibition) ([3]; kanamycin A alone, in the absence of compounds 3a-e): ~125 µg/mL |
